What all share (format): cell-based
In series [1] the test system is NCI-N87. Put plainly: cells. The conditions noted are these: Homo sapiens, read-out: IC50 (nM) NCI-N87. The method, then:
(§1) MDA-MB-231, OV90, and NCI-N87 cells at defined cell densities (1,500 cells per well, 80 µL volume) were seeded into 96-well plates. The cells were cultured overnight in a constant-temperature incubator (37°C, 5% CO2). Ecteinascidin derivative solutions at a maximum concentration of 2 mM were first prepared in DMSO, and serial 1:4 gradient dilutions were performed. 1 µL of each DMSO-prepared dilution was added to 99 µL of PBS containing 10% FBS per well and mixed thoroughly. The diluted solutions (2 µL of diluted solution and 18 µL of PBS containing 10% FBS per well) were then co-incubated with the cells (37°C, 5% CO2) for five days, after which CellTiter-Glo reagent (40 µL per well) was added, and […] values were measured using an i3x microplate reader.

The subject of series [2] is OV90. Kind of series: cells. The conditions noted are these: Homo sapiens, OV-90, 120 h, read-out: IC50 (nM) OV90. The method, then:
as §1

In series [3] the test system is MDA-MB-231. Kind of series: cells. The conditions noted are these: Homo sapiens, read-out: IC50 (nM) MDA-MB-231. The method, then: as §1
Series [4] has as its system MDA-MB-231, OV90, and NCI-N87 cells. Kind of series: Tumor cell proliferation inhibition assay of novel ecteinascidin derivatives, summary over the three cell lines. The conditions noted are these: compared with trabectedin and lurbinectedin. The method, then: as §1, with “The” for “MDA-MB-231, OV90, and NCI-N87 cells at defined cell densities (1,500 cells per well, 80 µL volume) were seeded into 96-well plates. The”

The mark [5] stands for this setting: 120 h, NCI-N87 cells, five days co-incubation.
The mark [6] stands for this setting: OV90 cells, five days co-incubation.
Setting [7] is: 120 h, MDA-MB-231 cells, five days co-incubation.

Where two headings read alike, the source gives them in different places. A value given as a limit tells only on which side of the number the result lay.

Among the data in patent EP4778932A1 (priority 2023, dated 2025) are IC50 and in-vitro cytotoxic activities values, retold here.

For the molecule `COc1ccc2[nH]c3c(c2c1)CCN[C@]31CS[C@@H]2c3c(OC(C)=O)c(C)c4c(c3[C@H](COC1=O)N1[C@@H]2[C@H]2c3c(cc(C)c(OC)c3O)C[C@@H]([C@@H]1O)N2C)OCO4` [Lurbinectedin, reference compound], the results for the IC50 in series [1] (setting [5]), in series [2] (setting [6]) and in series [3] (setting [7]) were under 1 nM, 1 to 10 nM and 1 to 10 nM, respectively.

For the molecule `COc1c(C)cc2c(c1O)[C@@H]1[C@@H]3[C@@H]4SC[C@]5(NCCc6cc(N)c(F)cc65)C(=O)OC[C@@H](c5c6c(c(C)c(OC(C)=O)c54)OCO6)N3[C@@H](C#N)[C@H](C2)N1C` [P1], the in-vitro cytotoxic activities result in series [4] was “superior to or comparable to those of trabectedin and lurbinectedin”. For the same molecule, the IC50 in series [1] (setting [5]), in series [2] (setting [6]) and in series [3] (setting [7]) was under 1 nM in each case.

For `COc1c(C)cc2c(c1O)[C@@H]1[C@@H]3[C@@H]4SC[C@]5(NCCc6cc(N)c(N(C)C)cc65)C(=O)OC[C@@H](c5c6c(c(C)c(OC(C)=O)c54)OCO6)N3[C@@H](C#N)[C@H](C2)N1C` [P5], the IC50 in series [1] (NCI-N87, 120 h) was 1 to 10 nM; in series [2], 1 to 10 nM; in series [3] (MDA-MB-231, 120 h), 1 to 10 nM.

Consider `COc1c(C)cc2c(c1O)[C@@H]1[C@@H]3[C@@H]4SC[C@]5(NC[C@@H](O)c6cc(N)ccc65)C(=O)OC[C@@H](c5c6c(c(C)c(OC(C)=O)c54)OCO6)N3[C@@H](C#N)[C@H](C2)N1C` [P9], for which the in-vitro cytotoxic activities entry in series [4] is “superior to or comparable to those of trabectedin and lurbinectedin”. The IC50 in series [1] (setting [5]), in series [2] (setting [6]) and in series [3] (setting [7]) was under 1 nM in each case.

In the case of `COc1c(C)cc2c(c1O)[C@@H]1[C@@H]3[C@@H]4SC[C@]5(NC[C@H](O)c6cc(N)ccc65)C(=O)OC[C@@H](c5c6c(c(C)c(OC(C)=O)c54)OCO6)N3[C@@H](C#N)[C@H](C2)N1C` [P10], the in-vitro cytotoxic activities result in series [4] is “superior to or comparable to those of trabectedin and lurbinectedin”. Further, the IC50 in series [1] (setting [5]), in series [2] (setting [6]) and in series [3] (setting [7]) was under 1 nM throughout.

Consider `COc1cc2c(cc1N)[C@H](O)CN[C@]21CS[C@@H]2c3c(OC(C)=O)c(C)c4c(c3[C@H](COC1=O)N1[C@@H]2[C@H]2c3c(cc(C)c(OC)c3O)C[C@@H]([C@@H]1C#N)N2C)OCO4` [P12], for which the in-vitro cytotoxic activities entry in series [4] was “superior to or comparable to those of trabectedin and lurbinectedin”. Besides, the concentration for half-maximal inhibition (IC50) in series [1] (setting [5]), in series [2] (setting [6]) and in series [3] (setting [7]) was under 1 nM each time.

With `COc1cc2c(cc1N)[C@@H](O)CN[C@]21CS[C@@H]2c3c(OC(C)=O)c(C)c4c(c3[C@H](COC1=O)N1[C@@H]2[C@H]2c3c(cc(C)c(OC)c3O)C[C@@H]([C@@H]1C#N)N2C)OCO4` [P13], in series [4], the in-vitro cytotoxic activities result is “superior to or comparable to those of trabectedin and lurbinectedin”. The IC50 in series [1] (setting [5]), in series [2] (setting [6]) and in series [3] (setting [7]) was under 1 nM each time.

Turning to `COc1cc2c(cc1N)[C@@H](OS(=O)(=O)O)CN[C@]21CS[C@@H]2c3c(OC(C)=O)c(C)c4c(c3[C@H](COC1=O)N1[C@@H]2[C@H]2c3c(cc(C)c(OC)c3O)C[C@@H]([C@@H]1C#N)N2C)OCO4` [P14], the concentration for half-maximal inhibition (IC50) in series [1] (setting [5]), in series [2] (setting [6]) and in series [3] (setting [7]) was over 200 nM each time.

As to `COc1cc2c(cc1NC(=O)CO)CCN(C)[C@]21CS[C@@H]2c3c(OC(C)=O)c(C)c4c(c3[C@H](COC1=O)N1[C@@H]2[C@H]2c3c(cc(C)c(OC)c3O)C[C@@H]([C@@H]1C#N)N2C)OCO4` [P90], the IC50 in series [1] (setting [5]), in series [2] (setting [6]) and in series [3] (setting [7]) was under 1 nM in each case.

On to `COc1cc2c(cc1N)[C@H](CC1CC1)CN[C@]21CS[C@@H]2c3c(OC(C)=O)c(C)c4c(c3[C@H](COC1=O)N1[C@@H]2[C@H]2c3c(cc(C)c(OC)c3O)C[C@@H]([C@@H]1C#N)N2C)OCO4` [P261], for which the results for the 50% inhibitory concentration (IC50) in series [1] (setting [5]), in series [2] (setting [6]) and in series [3] (setting [7]) were 10 to 200 nM, 10 to 200 nM and 1 to 10 nM, respectively.

`COc1cc2c(cc1N)[C@@H](CC1CC1)CN[C@]21CS[C@@H]2c3c(OC(C)=O)c(C)c4c(c3[C@H](COC1=O)N1[C@@H]2[C@H]2c3c(cc(C)c(OC)c3O)C[C@@H]([C@@H]1C#N)N2C)OCO4` [P262]: the 50% inhibitory concentration (IC50) in series [1] (setting [5]), in series [2] (setting [6]) and in series [3] (setting [7]) was 1 to 10 nM in each case.

Take `COc1cc2c(cc1O)C(N)CN[C@]21CS[C@@H]2c3c(OC(C)=O)c(C)c4c(c3[C@H](COC1=O)N1[C@@H]2[C@H]2c3c(cc(C)c(OC)c3O)C[C@@H]([C@@H]1C#N)N2C)OCO4` (some centres unmarked) [T2]: the 50% inhibitory concentration (IC50) in series [1] (setting [5]) was 10 to 200 nM; in series [2] (setting [6]), 10 to 200 nM; in series [3] (setting [7]) it was 1 to 10 nM.

Consider `COc1c(C)cc2c(c1O)[C@@H]1[C@@H]3[C@@H]4SC[C@]5(NCCc6cc(NC(=O)[C@H]7C[C@@H](O)C7)c(F)cc65)C(=O)OC[C@@H](c5c6c(c(C)c(OC(C)=O)c54)OCO6)N3[C@@H](C#N)[C@H](C2)N1C` [T5], for which the figures for the half-maximal inhibitory concentration (IC50) in series [1] (setting [5]), in series [2] (setting [6]) and in series [3] (setting [7]) were 1 to 10 nM, under 1 nM and under 1 nM, respectively.

With `COc1c(C)cc2c(c1O)[C@@H]1[C@@H]3[C@@H]4SC[C@]5(NCCc6c5ccc(N)c6O)C(=O)OC[C@@H](c5c6c(c(C)c(OC(C)=O)c54)OCO6)N3[C@@H](C#N)[C@H](C2)N1C` [T6], the 50% inhibitory concentration (IC50) in series [1] (setting [5]), in series [2] (setting [6]) and in series [3] (setting [7]) was 1 to 10 nM each time.

For the molecule `COc1c(C)cc2c(c1O)[C@@H]1[C@@H]3[C@@H]4SC[C@]5(NCCc6c5ccc(NC(=O)CO)c6O)C(=O)OC[C@@H](c5c6c(c(C)c(OC(C)=O)c54)OCO6)N3[C@@H](C#N)[C@H](C2)N1C` [T7], the IC50 in series [1] (setting [5]), in series [2] (setting [6]) and in series [3] (setting [7]) was 1 to 10 nM throughout.

As to `COc1c(C)cc2c(c1O)[C@@H]1[C@@H]3[C@@H]4SC[C@]5(NCCc6cc(N)c(O)cc65)C(=O)OC[C@@H](c5c6c(c(C)c(OC(C)=O)c54)OCO6)N3[C@@H](C#N)[C@H](C2)N1C` [T8], the IC50 in series [1] (setting [5]), in series [2] (setting [6]) and in series [3] (setting [7]) was 1 to 10 nM throughout.

Take `COc1c(C)cc2c(c1O)[C@@H]1[C@@H]3[C@@H]4SC[C@]5(NCCc6cc(NC(=O)CO)c(O)cc65)C(=O)OC[C@@H](c5c6c(c(C)c(OC(C)=O)c54)OCO6)N3[C@@H](C#N)[C@H](C2)N1C` [T9]: the IC50 in series [1] (setting [5]), in series [2] (setting [6]) and in series [3] (setting [7]) was 1 to 10 nM each time.

In the case of `COc1cc2c(cc1NC(=O)CO)C1(CC1)CN[C@]21CS[C@@H]2c3c(OC(C)=O)c(C)c4c(c3[C@H](COC1=O)N1[C@@H]2[C@H]2c3c(cc(C)c(OC)c3O)C[C@@H]([C@@H]1C#N)N2C)OCO4` [T11], the half-inhibitory concentration (IC50) in series [1] (setting [5]), in series [2] (setting [6]) and in series [3] (setting [7]) was under 1 nM throughout.

`COc1c(C)cc2c(c1O)[C@@H]1[C@@H]3[C@@H]4SC[C@]5(NCCc6cc(N)cc(O)c65)C(=O)OC[C@@H](c5c6c(c(C)c(OC(C)=O)c54)OCO6)N3[C@@H](C#N)[C@H](C2)N1C` [T12]: the half-maximal inhibitory concentration (IC50) in series [1] (setting [5]), in series [2] (setting [6]) and in series [3] (setting [7]) was 1 to 10 nM each time.

Regarding `COc1c(C)cc2c(c1O)[C@@H]1[C@@H]3[C@@H]4SC[C@]5(NCCc6cc(NC(=O)CO)cc(O)c65)C(=O)OC[C@@H](c5c6c(c(C)c(OC(C)=O)c54)OCO6)N3[C@@H](C#N)[C@H](C2)N1C` [T13], the IC50 in series [1] (setting [5]), in series [2] (setting [6]) and in series [3] (setting [7]) was 10 to 200 nM in each case.

For `COc1c(C)cc2c(c1O)[C@@H]1[C@@H]3[C@@H]4SC[C@]5(NCCc6cc(N)c(OC)c(OC)c65)C(=O)OC[C@@H](c5c6c(c(C)c(OC(C)=O)c54)OCO6)N3[C@@H](C#N)[C@H](C2)N1C` [T14], the IC50 in series [1] (setting [5]) fell in the range of 10 to 200 nM; in series [2] (setting [6]) it was 10 to 200 nM; in series [3] (setting [7]), 1 to 10 nM.

With `COc1c(C)cc2c(c1O)[C@@H]1[C@@H]3[C@@H]4SC[C@]5(NCCc6cc(NC(=O)CO)c(OC)c(OC)c65)C(=O)OC[C@@H](c5c6c(c(C)c(OC(C)=O)c54)OCO6)N3[C@@H](C#N)[C@H](C2)N1C` [T15], the IC50 in series [1] (setting [5]), in series [2] (setting [6]) and in series [3] (setting [7]) was 10 to 200 nM throughout.

Regarding `CNc1cc2c(cc1OC)[C@@]1(CS[C@@H]3c4c(OC(C)=O)c(C)c5c(c4[C@H](COC1=O)N1[C@@H]3[C@H]3c4c(cc(C)c(OC)c4O)C[C@@H]([C@@H]1C#N)N3C)OCO5)NCC2` [T16], the figures for the IC50 in series [1] (setting [5]), in series [2] (setting [6]) and in series [3] (setting [7]) were under 1 nM, 1 to 10 nM and 1 to 10 nM, respectively.

Regarding `COc1c(C)cc2c(c1O)[C@@H]1[C@@H]3[C@@H]4SC[C@]5(NCC(C)(C)c6c5ccc(N)c6OC)C(=O)OC[C@@H](c5c6c(c(C)c(OC(C)=O)c54)OCO6)N3[C@@H](C#N)[C@H](C2)N1C` [T18], the IC50 in series [1] (setting [5]) was under 1 nM; in series [2] (setting [6]), 1 to 10 nM; in series [3] (setting [7]), under 1 nM.

One may read the IC50 as the concentration at which inhibition is half-maximal.
